# In patent US6426369B1, “Oxethazaine as antimicrobial agent” (Eisai Co., Ltd., priority 1997, dated 2002):
# Experiments:
# [1] = system: H. pylori; experiment: Antimicrobial activity test 6: oxethazaine in combination with an antibiotic (AMPC, CAM, RXM), checker board method; format: cell-based, Helicobacter pylori; set-up: key to growth of H. pylori: “−” indicates the inhibited growth of H. pylori (presence of antimicrobial activity); “+” indicates the growth of H. pylori (absence of antimicrobial activity); conditions: for combined effect of oxethazaine and CAM / combined effect of oxethazaine and RXM: checker board; for effect of combined use: oxethazaine in combination with AMPC
# Text: The effect of combined use with amoxicillin (AMPC), clarithromycin (CAM) or roxithromycin (RXM) was examined in the same manner as in antimicrobial activity test 1, using the checker board method.
# [2] = system: H. pylori; experiment: Antimicrobial activity test 5: oxethazaine in combination with compound (IV) (lansoprazole), checker board method; format: cell-based, Helicobacter pylori
# Text: The effect of oxethazaine used in combination with compound (IV) (lansoprazole) was examined in the same manner as in antimicrobial activity test 1, using the checker board method.
# Hereinafter, the results are shown for each strain in the same manner as in antimicrobial activity test 3.
structure (smiles),measurement,setting,value
"CN(C(=O)CN(CCO)CC(=O)N(C)C(C)(C)Cc1ccccc1)C(C)(C)Cc1ccccc1 [Oxethazaine, 2,2′-[(2-hydroxyethyl)amino]bis[N-(1,1-dimethyl-2-phenylethyl)-N-methylacetamide]]",growth of H. pylori,"[1]; strain 90-390, oxethazaine 6.25 μg/ml, AMPC 0",+
same,growth of H. pylori,"[1]; strain 90-390, oxethazaine 12.5 μg/ml, AMPC 0",+
same,growth of H. pylori,"[1]; strain 90-390, oxethazaine 25 μg/ml, AMPC 0",−
same,growth of H. pylori,"[1]; strain 90-390, oxethazaine 50 μg/ml, AMPC 0",−
same,growth of H. pylori,"[1]; strain 90-390, oxethazaine 100 μg/ml, AMPC 0",−
same,growth of H. pylori,"[1]; strain 90-397, CAM 0 μg/ml (oxethazaine alone), oxethazaine μg/ml by row r6-r11: 100, 50, 25, 12.5, 6.25, 3.13",+
same,growth of H. pylori,"[1]; strain 90-397, CAM 0.006 μg/ml, oxethazaine μg/ml: 100, 50, 25, 12.5, 6.25, 3.13, 0",+
same,growth of H. pylori,"[1]; strain 90-397, CAM 0.012 μg/ml, oxethazaine μg/ml: 100, 50, 25, 12.5, 6.25, 3.13, 0",+
same,growth of H. pylori,"[1]; strain 90-397, CAM 0.024 μg/ml, oxethazaine μg/ml: 100, 50, 25, 12.5, 6.25, 3.13, 0",+
same,growth of H. pylori,"[1]; strain 90-397, CAM 0.05 μg/ml, oxethazaine μg/ml: 100, 50, 25, 12.5, 6.25, 3.13, 0",+
same,growth of H. pylori,"[1]; strain 90-397, CAM 0.1 μg/ml, oxethazaine μg/ml: 100, 50, 25, 12.5, 6.25, 3.13, 0",−
same,growth of H. pylori,"[1]; strain 90-397, CAM 0.2 μg/ml, oxethazaine μg/ml: 100, 50, 25, 12.5, 6.25, 3.13, 0",−
same,growth of H. pylori,"[1]; strain 90-397, CAM 0.4 μg/ml, oxethazaine μg/ml: 100, 50, 25, 12.5, 6.25, 3.13, 0",−
same,growth of H. pylori,"[1]; strain 90-397, CAM 0.8 μg/ml, oxethazaine μg/ml: 100, 50, 25, 12.5, 6.25, 3.13, 0",−
same,growth of H. pylori,"[1]; strain 90-397, CAM 1.56 μg/ml, oxethazaine μg/ml: 100, 50, 25, 12.5, 6.25, 3.13, 0",−
same,growth of H. pylori,"[1]; strain 90-397, CAM 3.13 μg/ml, oxethazaine μg/ml: 100, 50, 25, 12.5, 6.25, 3.13, 0",−
same,growth of H. pylori,"[1]; strain 90-397, CAM 6.25 μg/ml, oxethazaine μg/ml: 100, 50, 25, 12.5, 6.25, 3.13, 0",−
same,growth of H. pylori,"[1]; strain 90-397, CAM 12.5 μg/ml, oxethazaine μg/ml: 100, 50, 25, 12.5, 6.25, 3.13, 0",−
same,growth of H. pylori,"[1]; strain 90-397, CAM 25 μg/ml, oxethazaine μg/ml: 100, 50, 25, 12.5, 6.25, 3.13, 0",−
same,growth of H. pylori,"[1]; strain 90-397, CAM 50 μg/ml, oxethazaine μg/ml: 100, 50, 25, 12.5, 6.25, 3.13, 0",−
same,growth of H. pylori,"[1]; strain 90-397, CAM 100 μg/ml, oxethazaine μg/ml: 100, 50, 25, 12.5, 6.25, 3.13, 0",−
same,combined effect of oxethazaine and CAM,[1]; strain 90-397,90-397 (synergism)
same,growth of H. pylori,"[1]; strain 90-407, CAM 0 μg/ml (oxethazaine alone), oxethazaine μg/ml by row r14-r19: 100, 50, 25, 12.5, 6.25, 3.13",−
same,growth of H. pylori,"[1]; strain 90-407, CAM 0.006 μg/ml, oxethazaine μg/ml: 100, 50, 25, 12.5, 6.25, 3.13, 0",−
same,growth of H. pylori,"[1]; strain 90-407, CAM 0.012 μg/ml, oxethazaine μg/ml: 100, 50, 25, 12.5, 6.25, 3.13, 0",−
same,growth of H. pylori,"[1]; strain 90-407, CAM 0.024 μg/ml, oxethazaine μg/ml: 100, 50, 25, 12.5, 6.25, 3.13, 0",−
same,growth of H. pylori,"[1]; strain 90-407, CAM 0.05 μg/ml, oxethazaine μg/ml: 100, 50, 25, 12.5, 6.25, 3.13, 0",−
same,growth of H. pylori,"[1]; strain 90-407, CAM 0.1 μg/ml, oxethazaine μg/ml: 100, 50, 25, 12.5, 6.25, 3.13, 0",−
same,growth of H. pylori,"[1]; strain 90-407, CAM 0.2 μg/ml, oxethazaine μg/ml: 100, 50, 25, 12.5, 6.25, 3.13, 0",−
same,growth of H. pylori,"[1]; strain 90-407, CAM 6.25 μg/ml, oxethazaine μg/ml: 100, 50, 25, 12.5, 6.25, 3.13, 0",−
same,growth of H. pylori,"[1]; strain 90-407, CAM 12.5 μg/ml, oxethazaine μg/ml: 100, 50, 25, 12.5, 6.25, 3.13, 0",−
same,growth of H. pylori,"[1]; strain 90-407, CAM 25 μg/ml, oxethazaine μg/ml: 100, 50, 25, 12.5, 6.25, 3.13, 0",−
same,growth of H. pylori,"[1]; strain 90-407, CAM 50 μg/ml, oxethazaine μg/ml: 100, 50, 25, 12.5, 6.25, 3.13, 0",−
same,growth of H. pylori,"[1]; strain 90-407, CAM 100 μg/ml, oxethazaine μg/ml: 100, 50, 25, 12.5, 6.25, 3.13, 0",−
same,combined effect of oxethazaine and CAM,[1]; strain 90-407,90-407 (additive effect)
same,growth of H. pylori,"[1]; strain 90-407, oxethazaine 3.13 μg/ml, AMPC 0",+
same,growth of H. pylori,"[1]; strain 90-407, oxethazaine 6.25 μg/ml, AMPC 0",+
same,growth of H. pylori,"[1]; strain 90-407, oxethazaine 12.5 μg/ml, AMPC 0",+
same,growth of H. pylori,"[1]; strain 90-407, oxethazaine 25 μg/ml, AMPC 0",−
same,growth of H. pylori,"[1]; strain 90-407, oxethazaine 50 μg/ml, AMPC 0",−
same,growth of H. pylori,"[1]; strain 90-407, oxethazaine 100 μg/ml, AMPC 0",−
same,growth of H. pylori,"[1]; strain 90-414, oxethazaine 3.13 μg/ml, AMPC 0",+
same,growth of H. pylori,"[1]; strain 90-414, oxethazaine 6.25 μg/ml, AMPC 0",+
same,growth of H. pylori,"[1]; strain 90-414, oxethazaine 12.5 μg/ml, AMPC 0",+
same,growth of H. pylori,"[1]; strain 90-414, oxethazaine 25 μg/ml, AMPC 0",−
same,growth of H. pylori,"[1]; strain 90-414, oxethazaine 50 μg/ml, AMPC 0",−
same,growth of H. pylori,"[1]; strain 90-414, oxethazaine 100 μg/ml, AMPC 0",−
same,combined effect of oxethazaine and CAM,[1]; strain 90-428,90-428 (synergism)
same,combined effect of oxethazaine and RXM,[1]; strain EH 12,EH 12 (additive effect)
same,combined effect of oxethazaine and RXM,[1]; strain EH 13,EH 13 (additive effect)
same,combined effect of oxethazaine and RXM,[1]; strain NCTC11637,NCTC11637 (additive effect)
same,growth of H. pylori,"[1]; strain NCTC11637, oxethazaine 3.13 μg/ml, CAM 0",+
same,growth of H. pylori,"[1]; strain NCTC11637, oxethazaine 6.25 μg/ml, CAM 0",+
same,growth of H. pylori,"[1]; strain NCTC11637, oxethazaine 12.5 μg/ml, CAM 0",−
same,growth of H. pylori,"[1]; strain NCTC11637, oxethazaine 25 μg/ml, CAM 0",−
same,growth of H. pylori,"[1]; strain NCTC11637, oxethazaine 50 μg/ml, CAM 0",−
same,growth of H. pylori,"[1]; strain NCTC11637, oxethazaine 100 μg/ml, CAM 0",−
same,combined effect of oxethazaine and RXM,[1]; strain NCTC11639,NCTC11639 (additive effect)
same,growth of H. pylori,"[1]; strain NCTC11639, oxethazaine 3.13 μg/ml, CAM 0",+
same,growth of H. pylori,"[1]; strain NCTC11639, oxethazaine 6.25 μg/ml, CAM 0",+
same,growth of H. pylori,"[1]; strain NCTC11639, oxethazaine 12.5 μg/ml, CAM 0",+
same,growth of H. pylori,"[1]; strain NCTC11639, oxethazaine 25 μg/ml, CAM 0",−
same,growth of H. pylori,"[1]; strain NCTC11639, oxethazaine 50 μg/ml, CAM 0",−
same,growth of H. pylori,"[1]; strain NCTC11639, oxethazaine 100 μg/ml, CAM 0",−
same,effect of combined use,"[1]; the 34th table, strain NCTC11637",NCTC11637 (additive effect)
same,effect of combined use,"[1]; the 34th table, strain NCTC11639",NCTC11639 (additive effect)
same,effect of combined use,"[1]; the 35th table, strain NCTC11637",NCTC11637 (additive effect)
same,effect of combined use,"[1]; the 35th table, strain NCTC11639",NCTC11639 (additive effect)
same,effect of combined use,"[1]; the 36th table, strain EH 13",EH 13 (additive effect)
same,effect of combined use,"[1]; the 36th table, strain EH 16",EH 16 (additive effect)
same,effect of combined use,"[1]; the 37th table, strain EH 13",EH 13 (additive effect)
same,effect of combined use,"[1]; the 37th table, strain EH 16",EH 16 (additive effect)
same,effect of combined use,[2]; strain 90-392,90-392 (additive effect)
same,effect of combined use,[2]; strain 90-397,90-397 (synergism)
same,effect of combined use,[2]; strain 90-414,90-414 (synergism)
same,effect of combined use,[2]; strain 90-414(1),90-414(1) (synergism)
